Like-named read-outs stand apart in the source and are kept apart here.

Type in all cases: biochemical
In assay [1] the target is T1, inducible nitric oxide synthase (Homo sapiens, UniProt P35228).
T1 construct: Enzyme is prepared, after induction, from the cultured human colorectal carcinoma cell line, DLD-1; endogenous in cells; host or cells: DLD-1 cells (European Collection of Animal Cell Cultures), induced with IL-1, IFN-gamma, IL-6 and TNF-alpha; cell lysate
Nature of the assay: Screen B: screen for inducible nitric oxide synthase inhibiting activity (DLD-1 cell lysate).
Procedure: (§1) Nitric oxide synthase converts ^3 H-L-arginine to ^3 H-L-citrulline which can be separated by cation exchange chromatography and quantified by scintillation counting.
(B) Screen for inducible nitric oxide synthase inhibiting activity
Enzyme is prepared, after induction, from the cultured human colorectal carcinoma cell line, DLD-1 (obtained from the European Collection of Animal Cell Cultures) DLD-1 cells are cultured in RPMI 1640 media supplemented with 10% foetal bovine serum, 4 mM L-glutamine and antibiotics (100 units/ml penicillin G, 100 μg/ml streptomycin & 0.25 μg/ml amphotericin B) and 100 ug/ml kanamycin. Cells are routinely grown in 225 cm^3 flasks containing 35 ml medium kept at 37° C. and in a humidified atmosphere containing 5% CO2.
Nitric oxide synthase is produced by cells in response to interferon-about 250 U/ml IL-1, 1000 U/ml IFNγ, 200 U/ml IL-6, and 200 U/ml TNF-alpha. After a period of 17-20 hours in culture, harvesting of cells is accomplished by scraping the cell sheet from the flask surface into the culture medium. […]
Labelled L-citrulline is separated from labelled L-arginine using Dowex AG-50W. […] After allowing the samples to dry the L-citrulline is quantified by scintillation counting. […]

In assay [2] the target is T2, endothelial nitric oxide synthase (Homo sapiens, UniProt P29474).
T2 construct: Enzyme may be isolated from human umbilical vein endothelial cells (HUVECs); host or cells: human umbilical vein endothelial cells (HUVECs)
In words: Screen C: screen for endothelial nitric oxide synthase inhibiting activity (HUVEC enzyme).
Source text: as §1
(C) Screen for endothelial nitric oxide synthase inhibiting activity
HUVECs were purchased from Clonetics Corp (San Diego, Calif., U.S.A.) and cultured to confluency. Cells can be maintained to passage 35-40 without significant loss of yield of nitric oxide synthase. When cells reach confluency, they are resuspended in Dulbecco's phosphate buffered saline, centrifuged at 800 rpm for 10 mins, the cell pellet homogenised in ice-cold 50 mM Tris-HCl, 1 mM EDTA, 10% glycerol, 1 mM phenylmethylsulphonylfluoride, 2 μM leupeptin at pH 4.2. Following centrifugation at 34,000 rpm for 60 mins, the pellet is solubilised in the homogenisation buffer which also contains 20 mM CHAPS. After a 30 min incubation on ice, the suspension is centrifuged at 34,000 rpm for 30 mins. The resulting supernatant is stored at -80° C. until use. […]
Labelled L-citrulline is separated from labelled L-arginine by filtration into another 96 well plate and 75 ul of each terminated reaction is added to 3 ml of scintillation cocktail. The L-citrulline is then quantified by scintillation counting. […]

Assay [3] addresses T3, neuronal nitric oxide synthase (Rattus norvegicus, UniProt P29476).
T3 construct: Enzyme was isolated from rat hippocampus or cerebellum; from tissue; host or cells: hippocampus or cerebellum of male Sprague-Dawley rat, 20,000 g supernatant
Nature of the assay: Screen A: screen for neuronal nitric oxide synthase inhibiting activity (conversion of 3H-L-arginine to 3H-L-citrulline).
Procedure: as §1
(A) Screen for neuronal nitric oxide synthase inhibiting activity
Enzyme was isolated from rat hippocampus or cerebellum. The cerebellum or hippocampus of a male Sprague-Dawley rat (250-275 g) is removed following CO2 anaesthesia of the animal and decapitation. Cerebellar or hippocampal supernatant is prepared by homogenisation in 50 mM Tris-HCl with 1 mM EDTA buffer (pH 7.2 at 25° C.) and centifugation for 15 minutes at 20,000 g. Residual L-arginine is removed from the supernatant by chromatography through Dowex AG-50W-X8 sodium form and hydrogen form columns successively, and further centrifugation at 1000 g for 30 seconds.
For the assay, 25 μl of the final supernatant is added to each of 96 wells (of a 96 well filter plate) containing 25 μl L-arginine solution (of concentration 18 μM ^1 H-L-arginine, 96 nM ^3 H-L-arginine)and either 25 μl of an assay buffer (50 mM HEPES, 1 mM EDTA, 1.5 mM CaCl2, pH 7.4) or 25 μl of test compound in the buffer at 22° C. To each test tube is added 25 μl of complete assay buffer (50 mM HEPES, 1 mM EDTA, 1.5 mM CaCl2, 1 mM DTT, 100 μM NADPH, 10 μg/ml calmodulin, pH 7.4) to initiate the reaction and the reaction is stopped after 10 minutes by addition of 200 μl of a slurry of termination buffer (20 mM HEPES, 2 mM EDTA, pH 5.5) and Dowex AG-50W-X8 200-400 mesh.
Labelled L-citrulline is separated from labelled L-arginine by filtering each filter plate and 75 ul of each terminated reaction is added to 3 ml of scintillation cocktail. The L-citrulline is then quantified by scintillation counting.
IC50 values for test compounds were initially estimated from the inhibiting activity of 1, 10 and 100 μM solutions of the compounds.

T3 sequence (P29476 whole entry): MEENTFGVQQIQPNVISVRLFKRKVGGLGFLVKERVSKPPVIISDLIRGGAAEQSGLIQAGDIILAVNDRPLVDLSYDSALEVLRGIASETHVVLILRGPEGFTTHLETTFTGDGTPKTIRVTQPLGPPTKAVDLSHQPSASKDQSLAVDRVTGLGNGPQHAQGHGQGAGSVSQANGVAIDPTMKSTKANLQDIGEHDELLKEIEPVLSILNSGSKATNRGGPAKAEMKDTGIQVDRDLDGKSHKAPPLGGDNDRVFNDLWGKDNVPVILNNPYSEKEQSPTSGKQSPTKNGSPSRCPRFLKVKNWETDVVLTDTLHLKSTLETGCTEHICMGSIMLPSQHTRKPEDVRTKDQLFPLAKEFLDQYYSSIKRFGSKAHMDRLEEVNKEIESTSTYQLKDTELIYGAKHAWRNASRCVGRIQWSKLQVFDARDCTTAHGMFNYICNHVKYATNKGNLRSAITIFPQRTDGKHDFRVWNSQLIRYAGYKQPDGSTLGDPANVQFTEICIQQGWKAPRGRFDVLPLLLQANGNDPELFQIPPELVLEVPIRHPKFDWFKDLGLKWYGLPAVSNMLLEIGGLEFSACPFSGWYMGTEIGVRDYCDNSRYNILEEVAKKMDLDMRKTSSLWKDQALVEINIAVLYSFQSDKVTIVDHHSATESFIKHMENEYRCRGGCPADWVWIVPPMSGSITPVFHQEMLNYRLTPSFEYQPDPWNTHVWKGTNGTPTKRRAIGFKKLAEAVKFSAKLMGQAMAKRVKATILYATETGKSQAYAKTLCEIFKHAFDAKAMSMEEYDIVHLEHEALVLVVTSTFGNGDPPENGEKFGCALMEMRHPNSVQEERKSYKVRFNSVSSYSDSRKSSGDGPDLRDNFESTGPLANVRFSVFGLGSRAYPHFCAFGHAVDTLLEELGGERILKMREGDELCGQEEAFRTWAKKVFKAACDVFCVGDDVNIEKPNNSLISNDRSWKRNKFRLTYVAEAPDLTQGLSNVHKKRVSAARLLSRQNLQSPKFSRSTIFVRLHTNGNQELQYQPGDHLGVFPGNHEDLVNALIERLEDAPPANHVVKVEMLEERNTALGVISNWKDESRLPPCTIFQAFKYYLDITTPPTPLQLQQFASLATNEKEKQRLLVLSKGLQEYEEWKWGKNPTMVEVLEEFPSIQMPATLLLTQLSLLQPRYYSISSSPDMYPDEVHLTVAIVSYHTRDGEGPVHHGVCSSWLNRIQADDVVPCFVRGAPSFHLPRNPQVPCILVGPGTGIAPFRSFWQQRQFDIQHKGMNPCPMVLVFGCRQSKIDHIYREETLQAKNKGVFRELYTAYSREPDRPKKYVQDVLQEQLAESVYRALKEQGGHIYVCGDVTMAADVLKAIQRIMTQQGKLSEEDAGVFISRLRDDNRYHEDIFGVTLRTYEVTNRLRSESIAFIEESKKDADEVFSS
T2 sequence (P29474 2-1203): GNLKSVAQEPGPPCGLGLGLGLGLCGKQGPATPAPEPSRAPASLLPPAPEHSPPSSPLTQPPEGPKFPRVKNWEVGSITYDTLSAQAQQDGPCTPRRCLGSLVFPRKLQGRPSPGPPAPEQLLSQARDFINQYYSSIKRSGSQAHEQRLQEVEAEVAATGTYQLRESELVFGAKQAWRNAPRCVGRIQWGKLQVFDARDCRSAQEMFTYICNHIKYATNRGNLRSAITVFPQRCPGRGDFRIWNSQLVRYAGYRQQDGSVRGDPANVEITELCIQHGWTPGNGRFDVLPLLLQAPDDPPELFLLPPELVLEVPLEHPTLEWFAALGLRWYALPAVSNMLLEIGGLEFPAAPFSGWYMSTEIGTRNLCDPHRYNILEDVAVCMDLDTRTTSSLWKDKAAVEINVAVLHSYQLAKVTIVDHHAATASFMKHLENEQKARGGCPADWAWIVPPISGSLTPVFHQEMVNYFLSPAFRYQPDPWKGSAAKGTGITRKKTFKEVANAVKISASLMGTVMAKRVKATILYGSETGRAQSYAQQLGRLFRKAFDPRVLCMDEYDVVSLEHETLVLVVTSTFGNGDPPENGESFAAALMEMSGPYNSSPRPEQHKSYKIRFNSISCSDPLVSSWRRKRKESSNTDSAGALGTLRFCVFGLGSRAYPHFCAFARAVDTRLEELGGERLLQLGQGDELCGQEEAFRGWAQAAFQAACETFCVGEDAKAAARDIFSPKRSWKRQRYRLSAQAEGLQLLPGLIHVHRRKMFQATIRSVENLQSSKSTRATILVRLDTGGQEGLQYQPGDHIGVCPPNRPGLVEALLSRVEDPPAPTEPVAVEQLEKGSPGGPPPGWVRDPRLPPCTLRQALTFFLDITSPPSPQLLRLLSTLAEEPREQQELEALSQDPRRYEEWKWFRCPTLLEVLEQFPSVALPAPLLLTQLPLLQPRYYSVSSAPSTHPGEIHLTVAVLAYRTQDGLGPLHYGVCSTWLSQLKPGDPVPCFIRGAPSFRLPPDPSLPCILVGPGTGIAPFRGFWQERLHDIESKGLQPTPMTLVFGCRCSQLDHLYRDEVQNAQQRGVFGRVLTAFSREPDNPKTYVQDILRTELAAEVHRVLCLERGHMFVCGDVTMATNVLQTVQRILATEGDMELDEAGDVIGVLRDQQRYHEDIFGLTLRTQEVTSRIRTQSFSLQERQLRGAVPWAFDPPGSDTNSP

Turning to `N=C(N)NN` [Aminoguanidine, reference compound], in assay [1] (inducible isoform, DLD-1 cell lysate, standard to verify the procedure, read-out: IC50 (50% inhibitory concentration) (Screen B standard)), the IC50 was determined as 10 µM.
Turning to `CCSC(=N)Nc1ccc2c(c1)CNCC2` [Example 1, N-(1,2,3,4-tetrahydroisoquinolin-7-yl)carbamimidothioic acid ethyl ester], the “IC50 in Screen C relative to that obtained in Screen A (selectivity)” value in assay [2] (Screen C (endothelial isoform) IC50 / Screen A (neuronal) IC50) is given as “more than 10 times”. Moreover, in assay [3], the IC50 is < 10 µM. In addition, in assay [1] (Screen B (macrophage isoform) IC50 / Screen A (neuronal) IC50), the “IC50 in Screen B relative to that obtained in Screen A (selectivity)” value is on record as “more than 10 times”.
Consider `CCSC(=N)Nc1ccc2c(c1)CC(N(C)Cc1cccc(Cl)c1)C2` (stereo not shown) [Example 2, N-5-(2-(((3-chlorophenyl)methyl)(methyl)amino)indanyl)carbamimidothioic acid, ethyl ester], for which the IC50 in assay [3] (neuronal isoform, rat hippocampus or cerebellum supernatant, read-out: IC50 (Screen A)) is < 10 µM.
The inhibition is the change of the read-out against control, counted positive when it falls. As to `NC(=NCCC[C@H](N)C(=O)O)N[N+](=O)[O-]` [N-nitro-L-arginine, reference compound], the inhibition at 1 µM in assay [2] (at a concentration of 1 μM, typical experiment, read-out: inhibition of nitric oxide synthase (Screen C reference standard)) is 70 to 90%; in assay [3] (at a concentration of 1 μM, cerebellar supernatant, typical experiment, read-out: inhibition of nitric oxide synthase (Screen A reference standard)), 80%.

These data come from patent US5786364A, “Bicyclic isothiourea derivatives useful in therapy” (priority 1995, dated 1998).
